Eight compounds from ChEMBL document CHEMBL1201862, “PubChem BioAssay data set” (2004) can be followed below.

Structures are written as SMILES. The source made the active and inactive calls.

One assay has as its target Protein Wnt-3a (Mus musculus, UniProt P27467). Nature of the assay: Wnt3a-driven reporter signaling inhibition, dose response, selectivity assay for Gli-SUFU antagonist project, Wnt-LIGHT cells, luminescence (AID 651570).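 Note: Wnt-LIGHT reporter cells stimulated with conditioned medium from Wnt3a-producing cells.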 The class given is functional. The settings on record: read-out: IC50_Mean.
In assay [1] the target is T1, Apoptotic protease-activating factor 1 (Homo sapiens, UniProt O14727).
T1 sequence (O14727 whole entry): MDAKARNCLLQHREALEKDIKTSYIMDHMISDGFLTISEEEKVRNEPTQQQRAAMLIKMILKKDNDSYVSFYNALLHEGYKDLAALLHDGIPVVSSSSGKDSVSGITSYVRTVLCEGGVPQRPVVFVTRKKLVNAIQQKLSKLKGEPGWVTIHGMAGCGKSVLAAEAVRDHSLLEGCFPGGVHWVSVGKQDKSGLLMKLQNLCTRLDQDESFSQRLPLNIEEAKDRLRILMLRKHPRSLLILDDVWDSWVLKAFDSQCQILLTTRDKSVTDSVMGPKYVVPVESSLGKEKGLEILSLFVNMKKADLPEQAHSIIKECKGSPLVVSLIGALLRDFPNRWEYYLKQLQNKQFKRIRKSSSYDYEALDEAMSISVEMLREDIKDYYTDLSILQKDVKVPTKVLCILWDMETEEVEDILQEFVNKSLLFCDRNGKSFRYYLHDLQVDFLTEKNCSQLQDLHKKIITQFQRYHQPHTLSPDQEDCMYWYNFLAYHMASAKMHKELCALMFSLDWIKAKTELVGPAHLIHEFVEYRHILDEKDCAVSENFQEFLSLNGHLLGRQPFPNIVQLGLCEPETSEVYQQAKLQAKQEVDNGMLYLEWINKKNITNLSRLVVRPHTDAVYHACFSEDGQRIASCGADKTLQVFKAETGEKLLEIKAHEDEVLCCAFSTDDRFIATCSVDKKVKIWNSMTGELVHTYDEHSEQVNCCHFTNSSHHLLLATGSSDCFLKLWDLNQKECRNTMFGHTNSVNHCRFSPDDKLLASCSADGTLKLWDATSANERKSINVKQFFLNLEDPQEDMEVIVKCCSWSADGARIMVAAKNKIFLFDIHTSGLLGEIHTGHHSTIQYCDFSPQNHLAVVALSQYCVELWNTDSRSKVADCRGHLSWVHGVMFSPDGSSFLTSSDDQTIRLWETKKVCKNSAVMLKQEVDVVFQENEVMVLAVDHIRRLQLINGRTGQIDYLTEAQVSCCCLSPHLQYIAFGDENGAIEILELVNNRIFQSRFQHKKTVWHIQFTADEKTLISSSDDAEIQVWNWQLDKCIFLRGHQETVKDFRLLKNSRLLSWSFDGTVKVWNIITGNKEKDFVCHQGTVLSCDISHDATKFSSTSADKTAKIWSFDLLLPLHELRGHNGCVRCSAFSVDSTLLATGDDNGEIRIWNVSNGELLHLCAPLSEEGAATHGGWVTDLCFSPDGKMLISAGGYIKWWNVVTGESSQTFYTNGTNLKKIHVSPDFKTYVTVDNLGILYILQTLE
Type of assay: functional.

Assay [2] can be described thus: AlphaScreen signal interference compounds, dose response, artefact control for ARNT-TACC3 interaction inhibitor project, biochemical, luminescence, cherry-pick (AID 651705).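 Note: AlphaScreen bead proximity signal that flags compounds interfering with the detection technology; potency reflects signal decrease which marks the compound as an assay artifact.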 Type of assay: functional. On the technique in general: Alpha assays give light when donor and acceptor beads are brought close together.
The nature of assay [3]: HEp-2 cell cytotoxicity, dose response, cytotoxicity control for RSV inhibitor project, HTS (AID 2410). Type of assay: functional. To be noted: human respiratory syncytial virus.
The nature of assay [4]: Shn3 3'UTR reporter inhibitors, dose response, cell-based, Clone20 osteoblasts, firefly luciferase, cherry-picked (AID 624132).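 Note: firefly luciferase luminescence from reporter carrying the Shn3 3'UTR in osteoblasts.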 Type of assay: functional.
Assay [5] in a line: HepG2 cell cytotoxicity, dose response, cytotoxicity control for Shn3 inhibitor project, CellTiter-Glo, cherry-picked (AID 624134). Type of assay: functional, cell-based. For orientation: Cellular ATP, detected with luciferase, serves as a proxy for viable cell number.
A further assay has as its target T2, Caspase-3 (Homo sapiens, UniProt P42574).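 Note: Dose-response selectivity test against caspase-3 for candidate inhibitors of sentrin-specific proteases (SENPs).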
T2 sequence (P42574 whole entry): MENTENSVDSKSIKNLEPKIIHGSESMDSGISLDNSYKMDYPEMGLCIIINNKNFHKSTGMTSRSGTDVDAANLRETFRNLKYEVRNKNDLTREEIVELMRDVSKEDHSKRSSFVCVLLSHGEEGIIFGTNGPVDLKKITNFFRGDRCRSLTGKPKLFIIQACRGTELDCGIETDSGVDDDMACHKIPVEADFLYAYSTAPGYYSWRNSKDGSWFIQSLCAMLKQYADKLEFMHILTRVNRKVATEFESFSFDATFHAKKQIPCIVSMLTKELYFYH
The class given is functional.

Assay [6] concerns the target T3, Sentrin-specific protease 7 (Homo sapiens, UniProt Q9BQF6).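 Note: Luminescence-based dose-response confirmation of ultra-high-throughput screening hits, measuring inhibition of SENP7.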
T3 sequence (Q9BQF6 whole entry): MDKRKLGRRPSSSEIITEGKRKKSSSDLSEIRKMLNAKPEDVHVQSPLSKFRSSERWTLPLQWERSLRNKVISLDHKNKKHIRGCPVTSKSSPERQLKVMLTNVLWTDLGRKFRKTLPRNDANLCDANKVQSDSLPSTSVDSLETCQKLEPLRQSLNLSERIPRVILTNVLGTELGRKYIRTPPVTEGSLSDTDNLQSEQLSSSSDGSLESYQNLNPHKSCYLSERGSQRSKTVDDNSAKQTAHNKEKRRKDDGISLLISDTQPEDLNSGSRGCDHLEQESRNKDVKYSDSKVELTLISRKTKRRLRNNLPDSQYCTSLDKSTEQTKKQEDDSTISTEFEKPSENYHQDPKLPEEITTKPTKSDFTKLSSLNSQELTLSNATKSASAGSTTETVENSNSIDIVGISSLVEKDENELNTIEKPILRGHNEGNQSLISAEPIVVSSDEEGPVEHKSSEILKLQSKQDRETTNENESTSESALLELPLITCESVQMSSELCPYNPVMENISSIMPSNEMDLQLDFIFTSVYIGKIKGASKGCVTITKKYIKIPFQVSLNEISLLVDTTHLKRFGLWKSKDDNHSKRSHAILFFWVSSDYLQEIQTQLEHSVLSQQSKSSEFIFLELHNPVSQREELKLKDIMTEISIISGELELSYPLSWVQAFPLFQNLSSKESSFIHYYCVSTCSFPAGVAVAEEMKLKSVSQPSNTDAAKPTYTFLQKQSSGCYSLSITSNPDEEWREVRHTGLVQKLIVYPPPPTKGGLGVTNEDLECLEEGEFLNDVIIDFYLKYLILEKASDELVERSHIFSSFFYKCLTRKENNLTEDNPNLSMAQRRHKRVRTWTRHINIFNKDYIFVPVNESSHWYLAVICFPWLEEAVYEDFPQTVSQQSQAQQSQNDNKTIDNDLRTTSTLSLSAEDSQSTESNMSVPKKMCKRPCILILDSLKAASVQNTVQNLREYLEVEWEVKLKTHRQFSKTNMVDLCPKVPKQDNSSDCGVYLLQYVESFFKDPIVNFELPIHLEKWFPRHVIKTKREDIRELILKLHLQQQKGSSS
The class given is functional.

The target of assay [7] is T4, Sentrin-specific protease 6 (Homo sapiens, UniProt Q9GZR1).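 Note: Luminescence-based dose-response confirmatory assay of SENP6 inhibition, following up an ultra-high-throughput screen.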
T4 sequence (Q9GZR1 whole entry): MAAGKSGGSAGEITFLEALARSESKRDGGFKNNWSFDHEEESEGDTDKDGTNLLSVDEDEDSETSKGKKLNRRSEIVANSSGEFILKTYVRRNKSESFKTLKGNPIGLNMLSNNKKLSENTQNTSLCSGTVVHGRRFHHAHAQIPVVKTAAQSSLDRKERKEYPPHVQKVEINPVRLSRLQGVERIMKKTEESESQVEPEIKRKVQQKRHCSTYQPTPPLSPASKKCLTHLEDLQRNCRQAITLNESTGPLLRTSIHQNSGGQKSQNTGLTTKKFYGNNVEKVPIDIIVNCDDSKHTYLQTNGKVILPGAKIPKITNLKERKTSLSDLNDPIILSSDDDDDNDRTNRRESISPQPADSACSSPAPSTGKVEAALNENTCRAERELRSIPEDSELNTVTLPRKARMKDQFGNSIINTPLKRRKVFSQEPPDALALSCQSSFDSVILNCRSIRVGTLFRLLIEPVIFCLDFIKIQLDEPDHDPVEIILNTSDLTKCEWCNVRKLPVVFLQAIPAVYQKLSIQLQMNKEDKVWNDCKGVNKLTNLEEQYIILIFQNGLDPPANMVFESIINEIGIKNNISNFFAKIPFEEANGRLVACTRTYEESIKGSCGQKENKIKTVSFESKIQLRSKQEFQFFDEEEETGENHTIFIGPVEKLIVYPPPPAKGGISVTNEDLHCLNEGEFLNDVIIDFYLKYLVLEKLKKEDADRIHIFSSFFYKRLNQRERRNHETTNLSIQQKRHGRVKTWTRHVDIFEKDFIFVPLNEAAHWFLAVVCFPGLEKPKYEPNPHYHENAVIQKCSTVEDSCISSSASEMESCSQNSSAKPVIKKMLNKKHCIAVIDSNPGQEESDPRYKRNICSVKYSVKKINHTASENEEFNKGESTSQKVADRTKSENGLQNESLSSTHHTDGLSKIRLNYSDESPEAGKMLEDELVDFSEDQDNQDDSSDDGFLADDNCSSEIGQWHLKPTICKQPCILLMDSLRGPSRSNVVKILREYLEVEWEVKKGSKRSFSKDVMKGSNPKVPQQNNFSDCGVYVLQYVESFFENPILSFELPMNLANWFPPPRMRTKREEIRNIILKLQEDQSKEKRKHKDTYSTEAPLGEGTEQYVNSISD
The class given is functional.

Assay [8] deals with T5, Sentrin-specific protease 8 (Homo sapiens, UniProt Q96LD8).
T5 sequence (Q96LD8 whole entry): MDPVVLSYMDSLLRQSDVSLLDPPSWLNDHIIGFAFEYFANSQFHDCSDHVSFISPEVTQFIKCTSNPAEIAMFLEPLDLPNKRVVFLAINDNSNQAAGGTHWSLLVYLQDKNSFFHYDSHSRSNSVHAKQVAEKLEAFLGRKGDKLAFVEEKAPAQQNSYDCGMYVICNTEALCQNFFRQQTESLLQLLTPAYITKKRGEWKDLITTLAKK
Type of assay: functional.

Protein Wnt-3a, sequence (P27467 whole entry): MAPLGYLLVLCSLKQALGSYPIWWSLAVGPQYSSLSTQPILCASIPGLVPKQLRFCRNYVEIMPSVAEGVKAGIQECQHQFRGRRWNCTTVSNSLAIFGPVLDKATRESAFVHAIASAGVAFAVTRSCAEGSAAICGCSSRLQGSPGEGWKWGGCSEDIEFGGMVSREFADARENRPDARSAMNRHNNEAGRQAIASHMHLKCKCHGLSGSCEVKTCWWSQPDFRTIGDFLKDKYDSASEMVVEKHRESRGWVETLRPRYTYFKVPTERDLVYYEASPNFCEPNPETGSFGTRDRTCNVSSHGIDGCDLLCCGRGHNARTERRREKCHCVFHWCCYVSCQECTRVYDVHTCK

With `CCOc1ccc(NC(=S)NNc2ccnc3cc(Cl)ccc23)cc1`, the IC50 on Protein Wnt-3a is 11.4 µM (active).

`O=C1NNC(c2ccccc2)=N/C1=C\c1ccc(Cl)cc1`: in assay [1], the IC50 was 22.9 µM (active).

By AC50 is commonly meant the midpoint of the concentration-response curve, whichever way the signal moves. For the compound `C[C@H](NC(=O)c1ccco1)C(=O)Nc1nc(-c2ccccn2)cs1`, the AC50 in assay [2] was 90.1 µM (active).

The CC50 is the concentration at which the toxic effect on the cells reaches its halfway point. Consider `O=S(=O)(c1ccc(Br)cc1)N1CCN(c2ccc3nnc(-c4ccccc4)n3n2)CC1`, for which, in assay [3], the cytotoxic concentration (CC50) is 32.9 µM (active). In assay [1], the IC50 was 8.5 µM (active).

In the case of `COc1ccc(-c2noc(CCCCC(=O)N3CCN(c4cc(C)ccc4C)CC3)n2)cc1`, the AC50 in assay [4] was 1.75 µM (active); in [5] it was 2.2 µM (active). For the same compound, the IC50 at Protein Wnt-3a was 2.84 µM (active).

With `Nn1c(SCc2ccccc2)nc2c(cnn2-c2ccccc2)c1=O`, the IC50 on Caspase-3 is 36.1 µM (active); in assay [6], 11.4 µM (active); in assay [7], > 100 µM (inactive); in [8], > 100 µM (inactive).

On to `O=C(Cn1cc(SCc2ccc(F)cc2)c2ccccc21)N1CCOCC1`, for which the IC50 on Caspase-3 was 21.1 µM (active); in [6], 6.95 µM (active); in assay [7], 21.1 µM (active); in [8] it was 23.2 µM (active).

With `O=C(C[C@@H]1C/C=C\C[C@@H](NC(=O)OCC2c3ccccc3-c3ccccc32)C(=O)OC[C@@H](Cc2ccccc2)NC1=O)NCCO`, the IC50 on Protein Wnt-3a is 13.5 µM (active).
